Assay results as given in US20120129953A1, “TINGLING AND SALIVATING COMPOSITIONS” (FIRMENICH SA, priority 2006, published 2012).

Test: Blind test panel evaluation of sugar-free hard-boiled candies by trained evaluators
Type: in vivo
Details: hard-boiled candy
Description: The composition above was then used to prepare sugar-free hard-boiled candies, as follows: Isomalt (100 g) and water (30 g) were mixed and heated to 160° C. in a copper pan. At 160° C., the copper pan was removed from the heat and placed in a warm water bath (40° C.). When the temperature reached 135° C., aspartame, acesulfame-K, the liquid acidulant mixture (1.0%) and flavor were added. The cooked mass was poured at ambient temperature into appropriate Teflon® molds.
The following Table I summarizes the ingredients and respective dosages used in the preparation as described here above of a control hard-boiled candy according to the prior art and containing only citric acid as acidulant and a candy prepared according to the invention.
The Control candy and the Invention Candy were then evaluated by a panel of trained evaluators, on a blind test, and the results of this evaluation are shown in FIG. 1.

## O=C(O)CC(O)(CC(=O)O)C(=O)O [Citric acid]
  impact and sourness: deliver the expected effect
